Columns and labels:
GFLOMT1 = GFLOMT1 (Glaucium flavum, UniProt A0A0H4IRD0); test: Standard OMT assay, substrate specificity of recombinant GFLOMT1; assay type: biochemical; details: for conversion of substrate by GFLOMT1: standard OMT assay, in the presence of SAM; for Substrate specificity, enzyme GFLOMT1: substrate conversion in the standard OMT assay in the presence of SAM (percent)
Description: (§1) Full-length cDNAs for the seven GFLOMT candidates (see: Example 6) were cloned into the pRSETA expression vector with an N-terminal His_tag translational fusion and expressed in E. coli. Recombinant GFLOMTs were purified from total protein extracts using a cobalt-affinity resin.

GFLOMT2 [1] = molecular target: T1, GFLOMT2 (Glaucium flavum, UniProt A0A0H4ILZ3); test: Standard OMT assay, substrate specificity of recombinant GFLOMT2; assay type: biochemical; details: for conversion of substrate by GFLOMT2: standard OMT assay; for Substrate specificity, enzyme GFLOMT2: substrate conversion in the standard OMT assay (percent)
T1 sequence (A0A0H4ILZ3 1-348): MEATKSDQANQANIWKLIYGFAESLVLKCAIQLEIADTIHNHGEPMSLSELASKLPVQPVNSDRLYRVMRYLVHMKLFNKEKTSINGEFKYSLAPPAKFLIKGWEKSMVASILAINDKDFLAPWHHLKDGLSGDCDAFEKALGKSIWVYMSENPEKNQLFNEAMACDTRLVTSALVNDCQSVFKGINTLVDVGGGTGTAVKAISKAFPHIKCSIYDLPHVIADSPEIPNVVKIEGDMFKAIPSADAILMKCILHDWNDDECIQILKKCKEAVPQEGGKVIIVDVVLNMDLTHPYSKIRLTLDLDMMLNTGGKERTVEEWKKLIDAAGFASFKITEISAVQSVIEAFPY
Description: as §1

GFLOMT6 = GFLOMT6 (Glaucium flavum, UniProt A0A0H4IRD2); test: Standard OMT assay, substrate specificity of recombinant GFLOMT6; assay type: biochemical; details: for conversion of substrate by GFLOMT6 / acceptance as substrate by GFLOMT6 (in words): standard OMT assay; for Substrate specificity, enzyme GFLOMT6: substrate conversion in the standard OMT assay (percent)
Description: as §1

GFLOMT2 [2] = molecular target: T1, GFLOMT2; details: read-out: Km of GFLOMT2 for substrate; preferred substrate yielding single reaction product
GFLOMT7 = test: Standard OMT assay, substrate specificity of recombinant GFLOMT7; assay type: biochemical, Glaucium flavum; details: for conversion of substrate by GFLOMT7: standard OMT assay; for Substrate specificity, enzyme GFLOMT7: substrate conversion in the standard OMT assay (percent)
Description: as §1

SMILES | conversion of substrate by GFLOMT1 (GFLOMT1) [%] | Substrate specificity, enzyme GFLOMT1 (GFLOMT1) | conversion of substrate by GFLOMT2 (GFLOMT2 [1]) [%] | Substrate specificity, enzyme GFLOMT2 (GFLOMT2 [1]) | conversion of substrate by GFLOMT6 (GFLOMT6) [%] | Substrate specificity, enzyme GFLOMT6 (GFLOMT6) | acceptance as substrate by GFLOMT6 (in words) (GFLOMT6) | Km (GFLOMT2 [2]) [µM] | conversion of substrate by GFLOMT7 (GFLOMT7) [%] | Substrate specificity, enzyme GFLOMT7 (GFLOMT7)
COc1cc2c(cc1O)C(Cc1ccc(O)c(O)c1)N(C)CC2 (racemic) [(R,S)-6-O-Methyllaudanosoline, 6-O-Methyllaudanosoline] | 68 | 68 | 14 | 14 | 23 | 23 | – | – | – | –
COc1cc2c(cc1O)C(Cc1ccc(O)c(O)c1)NCC2 (racemic) [(R,S)-6-O-Methylnorlaudanosoline, 6-O-Methylnorlaudanosoline] | 87 | 87 | 1 | 1 | – | – | did not accept | – | – | –
Oc1ccc(CC2NCCc3cc(O)c(O)cc32)cc1O (racemic) [(R,S)-Norlaudanosoline, Norlaudanosoline] | 96 | 96 | 100 | 100 | – | – | did not accept | 15 | – | –
COc1ccc(C[C@@H]2NCCc3cc(OC)c(O)cc32)cc1O (racemic) [(R,S)-Norreticuline, Norreticuline] | – | – | – | – | 36 | 36 | – | – | – | –
COc1cc2c(cc1O)C1Cc3ccc(OC)c(O)c3CN1CC2 (racemic) [(R,S)-Scoulerine, Scoulerine] | 32 | 32 | 75 | 75 | 100 | 100 | – | – | 12 | 12
COc1cc2c(cc1O)[C@@H]1Cc3ccc(OC)c(OC)c3CN1CC2 (racemic) [(R,S)-Tetrahydrocolubamine, Tetrahydrocolumbamine] | 19 | 19 | 32 | 32 | 90 | 91 | – | – | 8 | 8
COc1ccc(C[C@H]2c3cc(O)c(OC)cc3CCN2C)cc1O [(S)-Reticuline, Reticuline] | 6 | 6 | 22 | 22 | 97 | 97 | – | – | – | –
